The text below walks through data of ChEMBL document CHEMBL5143569 (Eur J Med Chem, 2022).

pIC50, pKi: −log10 of the molar value. Where only a bound is given, the exact number is not on record here.

In test [1] the target is T1, Tyrosine-protein phosphatase non-receptor type 1 (Homo sapiens, UniProt P18031).
T1 sequence (P18031 whole entry): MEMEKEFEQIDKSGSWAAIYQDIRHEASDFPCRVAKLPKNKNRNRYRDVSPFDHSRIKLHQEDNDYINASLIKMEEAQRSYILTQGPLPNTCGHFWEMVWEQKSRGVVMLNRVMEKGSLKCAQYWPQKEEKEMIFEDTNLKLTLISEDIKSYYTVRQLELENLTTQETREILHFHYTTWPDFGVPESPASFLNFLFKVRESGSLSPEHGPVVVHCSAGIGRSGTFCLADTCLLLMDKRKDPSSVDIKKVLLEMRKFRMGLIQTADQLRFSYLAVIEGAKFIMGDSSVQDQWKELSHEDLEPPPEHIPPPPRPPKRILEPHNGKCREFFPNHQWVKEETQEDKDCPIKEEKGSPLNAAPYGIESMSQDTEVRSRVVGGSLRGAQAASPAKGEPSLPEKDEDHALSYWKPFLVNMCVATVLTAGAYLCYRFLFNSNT
Briefly: Inhibition of wild-type PTP1B (2 to 435 residues) (unknown origin) using DiFMUP as substrate and measured by biochemical assay.

For test [2], the target named is Tyrosine-protein phosphatase non-receptor type 6 (Homo sapiens, UniProt P29350). Briefly: Inhibition of wild-type SHP1 (2 to 595 residues) (unknown origin) using DiFMUP as substrate and measured by biochemical assay.
Sequence of Tyrosine-protein phosphatase non-receptor type 6 (P29350 whole entry, the tested form may be a part): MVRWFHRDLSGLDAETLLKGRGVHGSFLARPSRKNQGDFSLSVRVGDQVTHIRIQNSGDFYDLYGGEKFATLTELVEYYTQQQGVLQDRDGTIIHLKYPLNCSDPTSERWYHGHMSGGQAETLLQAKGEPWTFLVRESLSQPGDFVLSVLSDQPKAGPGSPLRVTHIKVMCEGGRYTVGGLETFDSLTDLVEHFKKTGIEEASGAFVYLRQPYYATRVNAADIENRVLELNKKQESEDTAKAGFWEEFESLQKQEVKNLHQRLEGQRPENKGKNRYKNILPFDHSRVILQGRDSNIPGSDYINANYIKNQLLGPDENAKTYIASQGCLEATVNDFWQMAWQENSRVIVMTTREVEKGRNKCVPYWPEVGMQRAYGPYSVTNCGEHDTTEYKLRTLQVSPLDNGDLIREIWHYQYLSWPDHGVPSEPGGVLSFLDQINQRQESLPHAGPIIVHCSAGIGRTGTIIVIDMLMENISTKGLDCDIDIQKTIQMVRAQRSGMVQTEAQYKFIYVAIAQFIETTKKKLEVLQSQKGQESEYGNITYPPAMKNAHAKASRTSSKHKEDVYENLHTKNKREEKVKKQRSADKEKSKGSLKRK
The nature of test [3]: Inhibition of SHP2 E76A mutant (unknown origin). Set-up: species or system Homo sapiens.
For test [4], the target named is T2, Tyrosine-protein phosphatase non-receptor type 11 (Homo sapiens, UniProt Q06124).
T2 sequence (Q06124 whole entry): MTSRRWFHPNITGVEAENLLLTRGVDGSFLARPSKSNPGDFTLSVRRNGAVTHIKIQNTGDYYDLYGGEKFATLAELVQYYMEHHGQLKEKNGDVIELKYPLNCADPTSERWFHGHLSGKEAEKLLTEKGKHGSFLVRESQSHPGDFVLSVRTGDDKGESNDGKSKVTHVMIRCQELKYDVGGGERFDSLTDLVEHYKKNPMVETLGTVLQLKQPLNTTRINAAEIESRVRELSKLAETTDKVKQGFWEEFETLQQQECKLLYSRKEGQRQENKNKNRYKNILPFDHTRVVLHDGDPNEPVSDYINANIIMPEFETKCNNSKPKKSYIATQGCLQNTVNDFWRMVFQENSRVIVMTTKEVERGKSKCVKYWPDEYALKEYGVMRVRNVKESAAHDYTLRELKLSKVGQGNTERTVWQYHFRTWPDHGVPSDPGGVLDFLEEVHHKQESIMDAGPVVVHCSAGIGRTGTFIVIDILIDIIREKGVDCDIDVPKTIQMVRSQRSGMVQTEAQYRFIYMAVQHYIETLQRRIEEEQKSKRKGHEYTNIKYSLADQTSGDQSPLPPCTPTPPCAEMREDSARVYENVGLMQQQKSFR

Test [5] addresses T2, Tyrosine-protein phosphatase non-receptor type 11. This is another data set of the same source.
Description: Allosteric inhibition of recombinant human SHP2 PTP domain (237 to 535 residues) using DiFMUP as substrate preincubated for 30 mins and followed by substrate addition and measured by microplate reader method
Test [6] has the same target. The test is described as follows: Reversible inhibition of wild-type human SHP2 using DiFMUP as substrate and measured by jump dilution assay.

As usually defined, the pIC50 is the IC50 on a negative log10 scale, so that one unit is a factor of ten. The low end stands for a high IC50, the high end for a low IC50. `CC1(N)CCN(c2cnc(-c3cccc(Cl)c3Cl)c(N)n2)CC1`: the negative-log IC50 (pIC50) in test [1] and in test [2] was less than 4.00 in each case.
In turn, `CC1(N)CCN(c2nc(-c3ccc4cc(Br)ccc4c3)cs2)CC1` gave a pIC50 in test [3] of 6.15.
In the case of `CC1(N)CCN(c2cnc(Sc3ccccc3Cl)c(N)n2)CC1`, the negative logarithm of the IC50 (pIC50) in test [4] was 7.01; in test [5], less than 5.00.
For `CC1(N)CCN(c2cnc(Sc3cccc(Cl)c3Cl)c(N)n2)CC1`, in that order: 7.60 and less than 5.00.
Broadly, the pKi is −log10 of the Ki, conventionally taken in molar units. Read a low pKi as a large Ki. For `CC1(CN)CCN(c2cnc(Sc3cccc(Cl)c3Cl)c(N)n2)CC1`, in test [6], the negative-log Ki (pKi) is 7.66. The pIC50 in test [5] is less than 5.00; in test [1], less than 4.00; in test [2], less than 4.00.
Take `COc1cccc(-c2nnc3n(Cc4ccc(C(=O)N5CCC[C@H]5C(=O)O)cc4Cl)c(=O)c4ccccc4n23)c1O`: in test [4], the negative logarithm of the IC50 (pIC50) was 4.22.
For the compound `CC1(N)CCN(c2cnc(Sc3cccc4ccccc34)c(N)n2)CC1`, the pIC50 is 6.76 in test [4] and less than 5.00 in test [5].
In the case of `CC1(N)CCN(c2cnc(SC3CCCCC3)c(N)n2)CC1`, the pIC50 is 5.02 in test [4] and less than 5.00 in test [5].
In the case of `CC1(O)CCN(c2cnc(-c3cccc(Cl)c3Cl)c(N)n2)CC1`, the negative-log IC50 (pIC50) in test [4] is 4.86; in test [5], less than 5.00.
For the compound `Nc1nc(N2CC[C@H](N)C2)cnc1-c1cccc(Cl)c1Cl`, the figures for the pIC50 in test [4] and in test [5] were 5.69 and less than 5.00, respectively.
As for `CN1CCN(c2cnc(-c3cccc(Cl)c3Cl)c(N)n2)CC1`, the negative logarithm of the IC50 (pIC50) in test [4] is 6.16; in test [5], less than 5.00.
For `CC1(N)CCN(c2cnc(Sc3cccc(Cl)c3)c(N)n2)CC1`, the values for the pIC50 in test [4] and in test [5] were 6.13 and less than 5.00, respectively.
In the case of `NCC1CCN(c2cnc(Sc3cccc(Cl)c3Cl)c(N)n2)CC1`, the results for the pIC50 in test [4] and in test [5] were 6.96 and less than 5.00, respectively.
As for `CC1(N)CCN(c2cnc(-c3cccc(F)c3F)c(N)n2)CC1`, the negative logarithm of the IC50 (pIC50) in test [4] was 5.24; in test [5], less than 5.00.
Turning to `CC1(N)CCN(c2cnc(Sc3ccc4ccccc4c3)c(N)n2)CC1`, the pIC50 is 6.01 in test [4] and less than 5.00 in test [5].
On to `CC1(N)CCN(c2cnc(Sc3ccccc3C(F)(F)F)c(N)n2)CC1`, for which the values for the negative-log IC50 (pIC50) in test [4] and in test [5] were 6.75 and less than 5.00, respectively.
With `CC1(N)CCN(c2cnc(Sc3ccccc3)c(N)n2)CC1`, the pIC50 in test [4] was 6.09; in test [5], less than 5.00.
With `COc1ccccc1Sc1ncc(N2CCC(C)(N)CC2)nc1N`, the negative-log IC50 (pIC50) in test [4] was 7.10; in test [5] it was less than 5.00.
Regarding `Cc1ccccc1Sc1ncc(N2CCC(C)(N)CC2)nc1N`, the pIC50 was 5.75 in test [4] and less than 5.00 in test [5].
In the case of `CC1(N)CCN(c2cnc(-c3ccc(C#N)cc3)c(N)n2)CC1`, the negative logarithm of the IC50 (pIC50) is 4.83 in test [4] and less than 5.00 in test [5].
Regarding `Cc1ccc(-c2ncc(N3CCC(C)(N)CC3)nc2N)cc1`, the values for the pIC50 in test [4] and in test [5] were 5.04 and less than 5.00, respectively.
`CC1(N)CCN(c2cnc(Sc3ccccc3F)c(N)n2)CC1`: the pIC50 was 6.32 in test [4] and less than 5.00 in test [5].
For the compound `Nc1nc(N2CCNCC2)cnc1-c1cccc(Cl)c1Cl`, the pIC50 in test [4] was 6.15; in test [5] it was less than 5.00.
As to `CC1(N)CCN(c2cnc(Sc3ccccc3Br)c(N)n2)CC1`, the figures for the pIC50 in test [4] and in test [5] were 7.23 and less than 5.00, respectively.
Regarding `Nc1nc(N2CCC(N)CC2)cnc1-c1cccc(Cl)c1Cl`, the negative logarithm of the IC50 (pIC50) in test [4] is 5.56; in test [5] it was less than 5.00.
The like results for `Nc1nc(N2CCC(O)CC2)cnc1-c1cccc(Cl)c1Cl` were, in that order, 5.21 and less than 5.00.
For `CNC1CCN(c2cnc(-c3cccc(Cl)c3Cl)c(N)n2)CC1`, the pIC50 in test [4] was 5.79; in test [5], less than 5.00.
The like results for `NCCC1CCN(c2cnc(-c3cccc(Cl)c3Cl)c(N)n2)CC1` were, in that order, 6.07 and less than 5.00.
For `CC1(N)CCN(c2cnc(SCc3ccccc3)c(N)n2)CC1`, in that order: 4.97 and less than 5.00.
For `CC1(N)CCN(c2cnc(Sc3ccc(Cl)cc3)c(N)n2)CC1`, in that order: 5.42 and less than 5.00.
Turning to `CC1(N)CCN(c2cnc(SCc3ccccc3Cl)c(N)n2)CC1`, the negative-log IC50 (pIC50) is 5.25 in test [4] and less than 5.00 in test [5].
With `CN(CCN)c1cnc(-c2cccc(Cl)c2Cl)c(N)n1`, the pIC50 in test [4] was 5.01; in test [5], less than 5.00.
